Active and inactive are the calls of the source. The rule behind the calls is not given here.
Experiments:
EL4 = assay: Cytotoxicity against mouse EL4 cells assessed as effect on cell viability at 1 to 10 uM measured after 72 hrs by MTT assay; format: cell-based; details: el4, 72 h, dose 1-10 µM
Mus musculus [1] = assay: Induction of Treg cell differentiation in DSS- induced ulcerative colitis mouse model assessed as increase in Foxp3 mRNA level at 20 to 40 mg/kg, po administered for 10 consecutive days by Q-PCR analysis; format: functional, organism-based; details: dose 20-40 mg/kg, time 10.0 day
Mus musculus [2] = assay: Antiinflammatory activity in DSS-induced ulcerative colitis mouse model assessed as protection against colon destruction at 20 to 40 mg/kg, po administered for 10 consecutive days by HE staining based histopathological analysis; format: functional, organism-based; details: dose 20-40 mg/kg, time 10.0 day
T-cell [3] = assay: Induction of cell differentiation in anti-CD3/CD28 stimulated naive T-cells assessed as number of Treg cells at 10 uM measured after 72 hrs by flow cytometry analysis (reference value: 24 %); format: functional
Mus musculus [4] = assay: Induction of Treg cell differentiation in DSS- induced ulcerative colitis mouse model assessed as number of Treg cells in spleens at 20 mg/kg, po administered for 10 consecutive days by flow cytometry analysis (Rvb= 6.49%); format: functional; details: time 10 day
T-cell [5] = assay: Induction of cell differentiation in anti-CD3/CD28 stimulated naive T-cells assessed as number of Treg cells at 30 uM measured after 72 hrs by flow cytometry analysis (reference value: 24 %); format: functional
Mus musculus [6] = assay: Induction of Treg cell differentiation in DSS- induced ulcerative colitis mouse model assessed as number of Treg cells in spleens at 40 mg/kg, po administered for 10 consecutive days by flow cytometry analysis (Rvb= 6.49%); format: functional; details: time 10 day
T-cell [7] = assay: Induction of cell differentiation in anti-CD3/CD28 stimulated naive T-cells assessed as upregulation of Foxp3 expression at 10 uM measured after 72 hrs by Q-PCR analysis; format: functional, cell-based
Mus musculus [8] = assay: Induction of Treg cell differentiation in DSS- induced ulcerative colitis mouse model assessed as number of Treg cells in mesenteric lymph nodes at 40 mg/kg, po administered for 10 consecutive days by flow cytometry analysis (Rvb= 7.52%); format: functional; details: time 10 day
Mus musculus [9] = assay: Antiinflammatory activity in DSS-induced ulcerative colitis mouse model assessed as protection against inflammation of colons at 20 to 40 mg/kg, po administered for 10 consecutive days by HE staining based histopathological analysis; format: functional, organism-based; details: dose 20-40 mg/kg, time 10.0 day
T-cell [10] = assay: Induction of cell differentiation in anti-CD3/CD28 stimulated naive T-cells assessed as number of Treg cells at 3 uM measured after 72 hrs by flow cytometry analysis (reference value: 24 %); format: functional
Mus musculus [11] = assay: Induction of Treg cell differentiation in DSS- induced ulcerative colitis mouse model assessed as number of Treg cells in colonic lamina proprias at 20 mg/kg, po administered for 10 consecutive days by flow cytometry analysis (Rvb= 7.97%); format: functional; details: time 10 day
Mus musculus [12] = assay: Induction of Treg cell differentiation in DSS- induced ulcerative colitis mouse model assessed as number of Treg cells in colonic lamina proprias at 40 mg/kg, po administered for 10 consecutive days by flow cytometry analysis (Rvb= 7.97%); format: functional; details: time 10 day
Mus musculus [13] = assay: Induction of Treg cell differentiation in DSS- induced ulcerative colitis mouse model assessed as number of Treg cells in mesenteric lymph nodes at 20 mg/kg, po administered for 10 consecutive days by flow cytometry analysis (Rvb= 7.52%); format: functional; details: time 10 day
Mus musculus [14] = assay: Antiinflammatory activity in DSS-induced ulcerative colitis mouse model assessed as reduction in MPO activity at 20 to 40 mg/kg, po administered for 10 consecutive days; format: functional, organism-based; details: dose 20-40 mg/kg, time 10.0 day
Mus musculus [15] = assay: Antiinflammatory activity in DSS-induced ulcerative colitis mouse model assessed as rescue of colon length shortening at 20 to 40 mg/kg, po administered for 10 consecutive days; format: functional, organism-based; details: dose 20-40 mg/kg, time 10.0 day
T-cell [16] = assay: Induction of cell differentiation in anti-CD3/CD28 stimulated naive T-cells assessed as upregulation of IL-10 mRNA expression at 3 to 30 uM measured after 72 hrs by Q-PCR analysis; format: functional, cell-based; details: dose 3-30 µM
T-cell [17] = assay: Induction of cell differentiation in anti-CD3/CD28 stimulated naive T-cells assessed as upregulation of Foxp3 mRNA expression at 3 to 30 uM measured after 72 hrs by Q-PCR analysis; format: functional, cell-based; details: dose 3-30 µM
T-cell [18] = assay: Induction of cell differentiation in anti-CD3/CD28 stimulated naive T-cells assessed as upregulation of CD4+ CD25+ cell frequency at 10 uM measured after 72 hrs by flow cytometry analysis; format: functional, cell-based
Mus musculus [19] = assay: Antiinflammatory activity in DSS-induced ulcerative colitis mouse model assessed as reduction in DAI score a 20 to 40 mg/kg, po administered for 10 consecutive days; format: functional, organism-based; details: dose 20-40 mg/kg, time 10.0 day
Mus musculus [20] = assay: Induction of Treg cell differentiation in DSS- induced ulcerative colitis mouse model assessed as increase in IL-10 mRNA level at 20 to 40 mg/kg, po administered for 10 consecutive days by Q-PCR analysis; format: functional, organism-based; details: dose 20-40 mg/kg, time 10.0 day
T-cell [21] = assay: Induction of cell differentiation in anti-CD3/CD28 stimulated naive T-cells assessed as upregulation of CD4+ CD25+ cell frequency at 1 uM measured after 72 hrs by flow cytometry analysis; format: functional, cell-based
T-cell [22] = assay: Induction of cell differentiation in anti-CD3/CD28 stimulated naive T-cells assessed as upregulation of Foxp3 mRNA expression at 1 uM measured after 72 hrs by Q-PCR analysis; format: functional, cell-based
T-cell [23] = assay: Induction of cell differentiation in anti-CD3/CD28 stimulated naive T-cells assessed as upregulation of IL-10 mRNA expression at 0.2 mM measured after 72 hrs by Q-PCR analysis; format: functional, cell-based
T-cell [24] = assay: Induction of cell differentiation in anti-CD3/CD28 stimulated naive T-cells assessed as number of Treg cells at 0.2 mM measured after 72 hrs by flow cytometry analysis (reference value: 24 %); format: functional
T-cell [25] = assay: Induction of cell differentiation in anti-CD3/CD28 stimulated naive T-cells assessed as upregulation of Foxp3 expression at 0.2 mM measured after 72 hrs by Q-PCR analysis; format: functional, cell-based
T-cell [26] = assay: Induction of cell differentiation in anti-CD3/CD28 stimulated naive T-cells assessed as upregulation of CD4+ CD25+ cell frequency at 0.2 mM measured after 72 hrs by flow cytometry analysis; format: functional, cell-based

COc1cc2c(cc1O)CC1c3c(cc(OC)c(O)c3-2)CCN1C(=O)c1ccccc1 (configuration not stated)
Activity (EL4): Non-Toxic

COc1cc2c(cc1O)CC1c3c(cc(OC)c(O)c3-2)CCN1Cc1ccccc1 (configuration not stated)
Activity (EL4): Non-Toxic

COc1cc2c(cc1O)CC1c3c(cc(OC)c(O)c3-2)CCN1C(=O)c1ccc(C)cc1 (configuration not stated)
Activity (EL4): Non-Toxic

COc1cc(CN2CCc3cc(OC)c(O)c4c3C2Cc2cc(O)c(OC)cc2-4)cc(OC)c1 (configuration not stated)
Activity (EL4): Non-Toxic

COc1cc2c(cc1O)CC1c3c(cc(OC)c(O)c3-2)CCN1Cc1ccc(F)cc1 (configuration not stated)
Activity (EL4): Non-Toxic

COc1cc2c(cc1O)CC1c3c(cc(OC)c(O)c3-2)CCN1Cc1ccc(Br)cc1 (configuration not stated)
Activity (EL4): Non-Toxic

COc1cc2c(cc1O)CC1c3c(cc(OC)c(O)c3-2)CCN1C(=O)c1ccc(Cl)cc1 (configuration not stated)
Activity (EL4): Non-Toxic

COc1cc2c(cc1O)C[C@@H]1NCCc3cc(OC)c(O)c-2c31
Activity (Mus musculus [1]): Active
Activity (Mus musculus [2]): Active
Activity (T-cell [3]): 31.8%
Activity (Mus musculus [4]): 6.58%
Activity (T-cell [5]): 44.2%
Activity (Mus musculus [6]): 7.41%
Activity (T-cell [7]): Active
Activity (Mus musculus [8]): 14.89%
Activity (Mus musculus [9]): Active
Activity (T-cell [10]): 24.4%
Activity (Mus musculus [11]): 12.25%
Activity (Mus musculus [12]): 15.87%
Activity (Mus musculus [13]): 9.8%
Activity (Mus musculus [14]): Active
Activity (Mus musculus [15]): Active
Activity (EL4): Non-Toxic
Activity (T-cell [16]): Active
Activity (T-cell [17]): Active
Activity (T-cell [18]): Active
Activity (Mus musculus [19]): Active
Activity (Mus musculus [20]): Active

COc1cc2c(cc1O)CC1c3c(cc(OC)c(O)c3-2)CCN1Cc1ccc(Cl)cc1 (configuration not stated)
Activity (T-cell [21]): inactive
Activity (EL4): Non-Toxic
Activity (T-cell [22]): Active

CCCC(=O)[O-].[Na+] [SODIUM BUTYRATE]
Activity (T-cell [23]): Active
Activity (T-cell [24]): 32.4%
Activity (T-cell [25]): Active
Activity (T-cell [26]): Active
Activity (EL4): Non-Toxic

COc1cc2c(cc1O)CC1c3c(cc(OC)c(O)c3-2)CCN1C(=O)c1cc(OC)c(OC)c(OC)c1 (configuration not stated)
Activity (EL4): Non-Toxic

Source: ChEMBL document CHEMBL4823244, “Synthesis of norisoboldine derivatives and bioactivity assay for inducing the generation of regulatory T cells” (Bioorg Med Chem Lett, 2021)
